SMILES strings stand for the structures.

Compound `COc1ccc(S(=O)(=O)NCCc2ccc(C(=O)O)cc2)cc1` displayed a melting point of 177 to 178 °C.
Take `CC(C)(C)[C@H](O)[C@@H](C#N)c1ccccc1` (racemic): the melting point was 70.7 to 71.2 °C.
As to `COC(=O)CC1=C(C)Cc2ccc(SC)cc21`, the melting point is 200 to 210 °C.
`CCN(CC)CCOc1ccc(C(O)(CC)c2cccc(C(F)(F)F)c2)cc1` (centres undefined) registered a melting point of 74 to 75 °C.
For `CC(C)(C)c1cc(CC2SC(=S)NC2=O)cc(C(C)(C)C)c1O` (centres undefined), the melting point is 178 to 179 °C.
The result for `Cn1cc(C2=C(c3c4n(c5ccccc35)CCC(C(N)=O)C4)C(=O)NC2=O)c2ccccc21` (centres undefined) reads 315 to 316 °C; that for `CCOC(=O)NC1=C(C(=O)OCC)CCC1`, 49 to 51 °C.
The result for `O=C(CCc1cccnc1)c1c(O)c2cccnc2n(-c2ccccc2)c1=O` reads 219 to 220 °C.
In turn, `CCCCCC(C(=O)O)n1cnc2cc(-c3ccccc3-c3nn[nH]n3)ccc21` (centres undefined) showed a melting point of 123 to 130 °C.
In the case of `CSc1nccc(CC(=O)c2ccc(F)cc2)n1` it was 212 to 214 °C; in that of `CNC(=O)C(=NOC)c1ccccc1COc1ncc(C)cc1Br`, 104 to 105 °C.
In the case of `CN1CC(C(=O)c2cccn2Cc2ccc(F)cc2)=C(O)C1=O` it was 150 to 151 °C; in that of `CC1=NCC2CNC(c3ccccc3F)c3cc(Cl)ccc3N12` (centres undefined), 108 to 110 °C; in that of `CCOCc1cc2cc(Br)ccc2oc1=Nc1ccc(OC)cc1`, 134 to 135 °C.
The result for `Nc1ccc(OC(F)(F)F)c(C(=O)O)c1` reads 196 to 197 °C.
For the compound `COc1ccc(-c2cc(OCC3CO3)c3ccccc3n2)cc1` (racemic), the melting point lay within 100 to 106 °C.
In the case of `COC(=O)c1ccc(-c2nc(O)c(C)s2)cc1` it was 219 to 220 °C; in that of `Cc1ccc(O)c(Cn2c(NC3CCNC(CCN4CCOCC4)C3)nc3ccc(CCc4ccccc4)cc32)n1` (centres undefined), 159 °C.
In the case of `Cc1cc2c(C#N)ccc(C#N)c2cc1C` it was 225 to 227 °C.
In the case of `O=C1OCCC=C1c1ccccc1` it was 100 to 101 °C; in that of `Cc1ccc(C(=O)OCn2c(Br)c(Br)c(S(=O)(=O)C(F)(F)F)c2-c2ccc(Cl)cc2)cc1`, 74 to 78 °C; in that of `O=C(c1ccc2nonc2c1)N1CCCCC1`, 88.5 to 90.5 °C.
Consider `O=C1OC(c2ccc(Cl)cc2)c2ccccc21` (centres undefined), for which the melting point was 124 °C.
As for `CCNC(=S)N1CCN(c2cncc(OC)n2)CC1`, the melting point fell in the range of 120 to 122 °C.
In the case of `COc1cc(C2=C(c3cn(CCCNC(=O)C(N)CO)c4ccccc34)C(=O)NC2=O)cc(OC)c1OC` (centres undefined) it was 112 to 114 °C.
In turn, `CC(C)c1cc(OCC(=O)O)cc2c1C(=O)N(COC(=O)c1c(Cl)cccc1Cl)S2(=O)=O` yielded a melting point of 136 to 137 °C.
The result for `Cc1cccc(Nc2nc(N)ncc2S(N)(=O)=O)c1` reads 213 to 215 °C.
In the case of `CCCCNS(=O)(=O)CC(O)C(O)C(CC1CCCCC1)NC(=O)c1ccncc1` (centres undefined) it was 168 to 186 °C; in that of `COc1ccc(N2CCN(Cc3cn(C)c4ncccc34)CC2)cc1`, 92 to 94 °C; in that of `C=CS(=O)(=O)C(C(=O)NC)S(=O)(=O)C=C`, 143 to 147 °C.
The result for `CCOC(=O)C=Cc1ccc2c(c1)ncn2-c1cccc(N2CCCCC2)c1` reads 85 to 87 °C.
In turn, `OCc1cn(-c2ccc3ccccc3n2)cn1` came in with a melting point of 136 to 137 °C.
As for `O=C(O)c1ccc(Cl)nc1Nc1ccccc1`, the melting point was in the range of 181 to 185 °C.
In the case of `CCC(=O)c1cnc2c(O)cccc2c1Nc1ccc(F)cc1C` it was 143 to 146 °C; in that of `CCOC(=O)N1CCN(c2nc3c(cc2F)c(=O)c(C(=O)O)cn3C2CC2)CC1`, 277 to 279 °C; in that of `Nc1cc(C(=O)N2CCC2)cc(C(F)(F)F)c1`, 154 °C.
Turning to `Cc1cc(O)c(S(=O)Cc2ccc(Cl)cc2Cl)c(=O)o1` (centres undefined), the melting point was in the range of 144 to 146 °C.
In the case of `O=c1[nH]cnc2cc(Br)sc12` it was 238 to 240 °C.
The result for `Cc1ccc(C)c(NC(=O)C(C)c2ccc(N)c([N+](=O)[O-])c2)c1` (centres undefined) reads 187 to 188 °C; that for `CC(C)(C)C12COC(CCCCBr)(OC1)OC2`, 111 to 115 °C.
As to `Cc1coc2cc(O)ccc12`, the melting point is 92 °C.
In the case of `CCOC(=O)C(C(=O)c1ccc(OC)cc1)N(N)c1ccccn1` (centres undefined) it was 130 to 131 °C; in that of `CCCCc1nc2ccccn2c(=O)c1-c1ccc(N)cc1`, 95 to 97 °C; in that of `c1ccc2c(CCOc3cncc(N4CCNCC4)n3)c[nH]c2c1`, 133 to 135 °C.
The result for `CN(C)CCN1C(=O)C(NC(=O)c2ccc(Cl)cc2)C(C)(C)SC1=S` (centres undefined) reads 152 to 153 °C; that for `N#CNC(=N)NCCCN1CCC(c2noc3cc(F)ccc23)CC1`, 178 to 181 °C; that for `COc1ccc(C(=O)Nc2ccncc2)c2c3cc(Cl)ccc3n(Cc3ccc(F)cc3)c12`, 241 to 245 °C.
The result for `CCOCc1nc2c(N)nc3ccc(OCc4ccccc4)cc3c2n1CCCCNS(C)(=O)=O` reads 182 to 185 °C.
Compound `Cc1nc(OS(=O)(=O)C(F)(F)F)c([N+](=O)[O-])c(NCC(C)(C)O)c1C` yielded a melting point of 79 to 80 °C.
The compound `CC(C)Sc1nc(OS(C)(=O)=O)cs1` gave a melting point of 83 to 85 °C.
The result for `COC(=O)c1cccc(C=C(C)[N+](=O)[O-])c1O` reads 119 to 121 °C; that for `O=C(COc1ccc(Cl)c(Cl)c1)Nc1cscc1C(=O)O`, 258 to 264 °C.
The result for `COC(=O)C1=C(NC(=O)Nc2ccccc2)CSC1` reads 182 to 184 °C; that for `CN(C)C(=O)C(O)C1c2ccccc2CCc2ccccc21` (centres undefined), 210 to 214 °C; that for `CC(=O)OCCCn1cc(C2=C(c3ccccc3[N+](=O)[O-])C(=O)NC2=O)c2ccccc21`, 77 to 78 °C.
`C[C@]1(COC(=O)N(c2ccc(Cl)cc2)c2ccc(Cl)cc2)Cn2cc([N+](=O)[O-])nc2O1` gave a melting point of 200 to 201 °C.
In the case of `O=C(C=Cc1ccc(Cl)c(Cl)c1)C1CC1` it was 74 to 76 °C; in that of `COc1ccc(C2(c3ccc(OC)cc3)CCN(C[C@@H]3C=C4c5cccc6[nH]c(Cl)c(c56)C[C@H]4N(C)C3)CC2)cc1`, above 204 °C; in that of `N#Cc1ccc(C(=O)CNc2ccc(I)cc2)cc1`, 160 to 165 °C.
In the case of `CCCCCCOc1ccc(F)c(C(N)=O)c1Cl` it was 66 to 68 °C; in that of `CC(=O)OCC1OC(n2cnc3c(NCC(c4ccccc4)c4ccccc4)ncnc32)C(OC(C)=O)C1OC(C)=O` (centres undefined), 75 to 80 °C; in that of `COc1cc2c(cc1Nc1ncc(Cl)c(N[C@@H]3CCCC[C@H]3NS(C)(=O)=O)n1)CCN(CC(=O)N(C)C)CC2`, 92 to 97 °C.
In the case of `CCC(=O)Nc1nc(N2CCC(c3c[nH]c4ccc(NC(C)=O)cc34)CC2)cs1` it was 263 to 267 °C.
`COc1cc(C=CC(=O)Nc2c(-c3ccccc3)c3cc(C)cc(C)c3oc2=O)cc(OC)c1OC(C)=O` yielded a melting point of 245 to 248 °C.
In the case of `CCC1(Cl)Cc2cc(OC(C)(C)C(=O)O)c(Cl)c(Cl)c2C1=O` (centres undefined) it was 164 to 165 °C; in that of `Oc1ccc2oc(-c3cccc(O)c3O)nc2c1`, 239 to 241 °C.
The compound `O=c1cnn(-c2cc(Cl)c(C(c3ccc(Cl)cc3)c3nc(-c4ccccc4)no3)c(Cl)c2)c(=O)[nH]1` (centres undefined) displayed a melting point of 128 °C.
In turn, `N#Cc1cnc2cc(-c3csc(CN4CCOCC4)c3)ccc2c1Nc1ccc(Oc2ccccc2)cc1` showed a melting point of 221 to 223 °C.
As to `CCOC(=O)Cn1c(C(=O)NCc2nnc(C)n2-c2sc(CC)cc2C(=O)c2ccccc2Cl)cc2cc(F)ccc21`, the melting point fell in the range of 125 to 127 °C.
The result for `COc1ccc2c(c1)C1(C)CC(=O)N(C)C1(O)CC2` (centres undefined) reads 182 to 186 °C.
In the case of `CC(C)(CCCCOCCCCC(C)(C)C(=O)O)C(=O)O` it was 49 to 51 °C; in that of `CCc1nc2cccc(C)c2c(=O)n1C1CCC(=O)NC1=O` (centres undefined), 228 to 230 °C; in that of `CC(=O)c1ccc(N(C)Cc2ccccc2)c(S(N)(=O)=O)c1`, 159 to 161 °C.
The result for `NC(=O)c1cc(C(=O)CN(Cc2ccccc2)Cc2ccccc2)ccc1OCC(O)CO` (centres undefined) reads 169 to 173 °C; that for `CCOc1nn(C(=O)N(CCCF)S(=O)(=O)N=c2[nH]ccs2)c(=O)n1C`, 178 °C.
Consider `CC(C)(C)Sc1c(-c2ccc(S(C)(=O)=O)cc2)cnn(CC(F)(F)F)c1=O`, for which the melting point lay within 186 to 189 °C.
The result for `CN(C)C1(c2ccccc2)CCC(CNC(=S)NCCc2c[nH]c3ccccc23)CC1` (centres undefined) reads 92 to 95 °C; that for `NC(=O)COC(=O)c1c(F)cccc1F`, 108 to 110 °C.
The result for `COc1cccc2c(Nc3ccccc3C)nc(N)nc12` reads 218 to 220 °C; that for `O=C1NC(=O)C(C2CCCC2)C(=O)N1`, 222 to 223 °C.
Turning to `C1=Cc2ccccc2C(N2CCNCC2)c2ccccc21`, the melting point is 139 to 141 °C.
The result for `CC(C)Oc1c(C(N)=O)sc2ccc(N)cc12` reads 150 to 151 °C.
In the case of `CCN(CC)C(=O)ON=C(C(=O)N(C)C)C(C)=NOC` it was 59 to 61 °C; in that of `CCCCC1(CCCC)CS(=O)(=O)c2ccc(N(C)C)cc2[C@@H](c2ccc(OCCCCCSc3nnnn3CC(=O)O)cc2)[C@H]1O`, 119 to 123 °C; in that of `Cc1occc1C(=O)Nc1ccc(C(=O)N2Cc3cccn3Cc3ccccc32)cn1`, 210 to 212 °C.
As for `CC(C)c1csc(C(C)C)c1NC(=S)NC(C)(C)C`, the melting point is 168 to 169 °C.
The result for `CCCN(Cc1csc(C(C)C)n1)C(=O)N[C@H](C(=O)N[C@@H](Cc1ccccc1)C[C@H](O)[C@H](Cc1ccccc1)NC(=O)OCc1cncs1)C(C)C` reads 62 to 64 °C; that for `CC(C)(C)OC(=O)NCC1C2CN(C(=O)C(O)(c3ccccc3)C3CCCC3)CC12` (centres undefined), 76 to 79.6 °C; that for `Nc1ncc(-c2cccc(Cl)c2Cl)c(N)n1`, 208 to 211 °C.

For orientation: melting point means the temperature, or range, at which the solid turns liquid.

The values above are taken from a melting point compilation (Tetko et al.; mined from patent text by program, amines drawn as free bases though some values may be those of a salt).
